Data: patent US10377753B2, “Substituted 4-azaindoles and their use as GluN2B receptor modulators” (Janssen Pharmaceutica NV, priority 2015, dated 2019)
Counter-ions that a name gives are not always drawn.

Target: cloned human NR1/NR2B ion channels (Homo sapiens (Human), UniProt Q05586+Q13224)
Assay: HNR2BC: effects of test articles on cloned human NR1/NR2B ion channels expressed in mammalian cells (FLIPR calcium flux)
Format: cell-based
Settings: cloned human NR1/NR2B, Table 5
Method in brief: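 In a stable Tet-On-induced cell line expressing human GluN1/GluN2B, Calcium 5-loaded cells were preincubated 5 min with compound, then stimulated 5 min with glutamate at ~EC80 plus 10 μM glycine, in pH 7.4 HEPES buffer. FLIPR calcium fluorescence was normalized to control wells.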

Chain of cloned human NR1/NR2B ion channels (Q13224 27-1484, other chains not shown): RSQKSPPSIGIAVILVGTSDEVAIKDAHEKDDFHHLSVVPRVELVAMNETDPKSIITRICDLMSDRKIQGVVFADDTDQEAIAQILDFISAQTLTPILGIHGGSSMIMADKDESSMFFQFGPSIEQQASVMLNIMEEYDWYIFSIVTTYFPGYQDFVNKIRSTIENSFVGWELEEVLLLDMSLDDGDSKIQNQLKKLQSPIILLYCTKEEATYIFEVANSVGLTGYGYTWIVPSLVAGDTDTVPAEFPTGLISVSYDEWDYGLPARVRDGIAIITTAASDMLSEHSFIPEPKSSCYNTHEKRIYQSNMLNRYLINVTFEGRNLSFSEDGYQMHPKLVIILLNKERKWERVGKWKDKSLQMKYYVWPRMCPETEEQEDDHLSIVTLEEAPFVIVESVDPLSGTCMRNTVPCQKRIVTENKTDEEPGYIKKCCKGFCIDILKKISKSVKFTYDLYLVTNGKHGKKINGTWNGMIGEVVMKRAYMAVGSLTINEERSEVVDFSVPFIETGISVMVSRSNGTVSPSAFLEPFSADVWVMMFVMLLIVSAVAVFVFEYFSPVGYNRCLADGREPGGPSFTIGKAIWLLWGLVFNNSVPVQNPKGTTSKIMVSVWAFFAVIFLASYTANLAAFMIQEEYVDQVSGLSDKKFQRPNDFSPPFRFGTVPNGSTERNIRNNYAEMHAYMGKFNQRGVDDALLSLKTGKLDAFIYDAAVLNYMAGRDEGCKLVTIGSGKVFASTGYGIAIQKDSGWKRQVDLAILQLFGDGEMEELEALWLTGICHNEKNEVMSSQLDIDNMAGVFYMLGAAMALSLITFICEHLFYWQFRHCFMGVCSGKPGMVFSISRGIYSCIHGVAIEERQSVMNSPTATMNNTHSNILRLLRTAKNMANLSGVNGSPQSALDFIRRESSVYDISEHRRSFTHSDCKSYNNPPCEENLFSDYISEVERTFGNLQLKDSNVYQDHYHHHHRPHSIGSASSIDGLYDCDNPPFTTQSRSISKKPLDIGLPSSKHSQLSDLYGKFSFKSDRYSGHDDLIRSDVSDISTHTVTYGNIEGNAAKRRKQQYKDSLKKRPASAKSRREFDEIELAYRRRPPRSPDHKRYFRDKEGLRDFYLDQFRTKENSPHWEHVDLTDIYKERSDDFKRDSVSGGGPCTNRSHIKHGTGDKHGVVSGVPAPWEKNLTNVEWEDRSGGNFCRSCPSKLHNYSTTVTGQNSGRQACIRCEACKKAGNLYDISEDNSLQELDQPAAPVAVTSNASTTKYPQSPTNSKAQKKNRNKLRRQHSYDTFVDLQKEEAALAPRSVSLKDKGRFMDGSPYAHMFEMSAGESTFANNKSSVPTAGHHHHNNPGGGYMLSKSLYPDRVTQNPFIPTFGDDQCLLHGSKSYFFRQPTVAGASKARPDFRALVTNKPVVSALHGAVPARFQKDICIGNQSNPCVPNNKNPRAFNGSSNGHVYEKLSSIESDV

Going from `CC1(NC(=O)Cn2ccc3ncc(-c4ccc(F)cc4)cc32)CC1` [Example 232, 2-[6-(4-Fluorophenyl)pyrrolo[3,2-b]pyridin-1-yl]-N-(1-methylcyclopropyl)acetamide] to `CC(C)CNC(=O)Cn1ccc2ncc(-c3ccc(F)cc3)cc21` [Example 234, 2-[6-(4-Fluorophenyl)pyrrolo[3,2-b]pyridin-1-yl]-N-isobutyl-acetamide], the IC50 falls from 10000 nM to 2510 nM (4-fold).

First: O=C(Cn1ccc2ncc(-c3ccc(F)cc3)cc21)NCCF [Example 233, N-(2-Fluoroethyl)-2-[6-(4-fluorophenyl)pyrrolo[3,2-b]pyridin-1-yl]acetamide]
Second: O=C(Cn1ccc2ncc(-c3ccc(F)cc3)cc21)NCCO [Example 253, 2-[6-(4-Fluorophenyl)pyrrolo[3,2-b]pyridin-1-yl]-N-(2-hydroxyethyl)acetamide]
The IC50 of the first is 200-fold higher: 15800 nM for the first, 79.4 nM for the second. The second is the more potent here.

First: Cc1cc(-c2cnc3ccn(Cc4cnn(C)c4)c3c2)ccc1F [Example 236, 6-(4-Fluoro-3-methyl-phenyl)-1-[(1-methylpyrazol-4-yl)methyl]pyrrolo[3,2-b]pyridine]
Second: Cc1cc(-c2cnc3ccn(Cc4cn(C)nn4)c3c2)ccc1F [Example 238, 6-(4-Fluoro-3-methyl-phenyl)-1-[(1-methyltriazol-4-yl)methyl]pyrrolo[3,2-b]pyridine]
The IC50 of the first is 16-fold lower: 200 nM for the first, 3160 nM for the second.

First: O=C(Cn1ccc2ncc(-c3ccc(F)cc3)cc21)NCC1CC1 [Example 237, N-(Cyclopropylmethyl)-2-[6-(4-fluorophenyl)pyrrolo[3,2-b]pyridin-1-yl]acetamide]
Second: COCCNC(=O)Cn1ccc2ncc(-c3ccc(F)cc3)cc21 [Example 254, 2-[6-(4-Fluorophenyl)pyrrolo[3,2-b]pyridin-1-yl]-N-(2-methoxyethyl)acetamide]
The IC50 of the first is 1.6-fold higher: 2000 nM for the first, 1260 nM for the second. The second is the more potent here.

First: Cc1noc(Cn2cc(Cl)c3ncc(-c4ccc(F)c(C)c4)cc32)n1 [Example 239, 5-[[3-Chloro-6-(4-fluoro-3-methyl-phenyl)pyrrolo[3,2-b]pyridin-1-yl]methyl]-3-methyl-1,2,4-oxadiazole]
Second: Cc1cc(-c2cnc3c(Cl)cn(Cc4cnn(C)c4)c3c2)ccc1F [Example 240, 3-Chloro-6-(4-fluoro-3-methyl-phenyl)-1-[(1-methylpyrazol-4-yl)methyl]pyrrolo[3,2-b]pyridine]
The IC50 of the first is 3.2-fold lower: 158 nM for the first, 501 nM for the second.

First: Cc1cc(-c2cnc3c(Cl)cn(CC(=O)C4CCC4)c3c2)ccc1F [Example 241, 2-[3-Chloro-6-(4-fluoro-3-methyl-phenyl)pyrrolo[3,2-b]pyridin-1-yl]-1-cyclobutyl-ethanone]
Second: Cc1cc(-c2cnc3ccn(CC(=O)C4CCC4)c3c2)ccc1F [Example 242, 1-Cyclobutyl-2-[6-(4-fluoro-3-methyl-phenyl)pyrrolo[3,2-b]pyridin-1-yl]ethanone]
The IC50 of the first is 6.3-fold higher: 5010 nM for the first, 794 nM for the second.

First: O=C(Cn1cc(Cl)c2ncc(-c3cncc(C(F)(F)F)c3)cc21)N1CCC1 [Example 243, 1-(Azetidin-1-yl)-2-[3-chloro-6-[5-(trifluoromethyl)-3-pyridyl]pyrrolo[3,2-b]pyridin-1-yl]ethanone trifluoroacetate salt]
Second: O=C(Cn1cc(Cl)c2ncc(-c3cncc(C(F)(F)F)c3)cc21)NC1CC1 [Example 244, 2-[3-Chloro-6-[5-(trifluoromethyl)-3-pyridyl]pyrrolo[3,2-b]pyridin-1-yl]-N-cyclopropyl-acetamide trifluoroacetate salt]
The IC50 of the first is 6.3-fold lower: 100 nM for the first, 631 nM for the second.

`O=C(Cn1cc(Cl)c2ncc(-c3cccc(C(F)(F)F)n3)cc21)N1CCC1` [Example 245, 1-(Azetidin-1-yl)-2-[3-chloro-6-[6-(trifluoromethyl)-2-pyridyl]pyrrolo[3,2-b]pyridin-1-yl]ethanone] and `O=C(Cn1cc(Cl)c2ncc(-c3cccc(C(F)(F)F)n3)cc21)N1CC(F)C1` [Example 247, 2-[3-Chloro-6-[6-(trifluoromethyl)-2-pyridyl]pyrrolo[3,2-b]pyridin-1-yl]-1-(3-fluoroazetidin-1-yl)ethanone] are within 1.5-fold of each other in IC50: 398 nM for the first, 316 nM for the second.

`O=C(Cn1cc(Cl)c2ncc(-c3cccc(C(F)(F)F)n3)cc21)NC1CC1` [Example 246, 2-[3-Chloro-6-[6-(trifluoromethyl)-2-pyridyl]pyrrolo[3,2-b]pyridin-1-yl]-N-cyclopropyl-acetamide] and `O=C(Cn1ccc2ncc(-c3ccc(F)c(F)c3F)cc21)NC1CC1` [Example 249, N-Cyclopropyl-2-[6-(2,3,4-trifluorophenyl)pyrrolo[3,2-b]pyridin-1-yl]acetamide] are within 1.5-fold of each other in IC50: 100 nM for the first, 79.4 nM for the second.

Going from `O=C(Cn1ccc2ncc(-c3cc(F)c(F)c(F)c3)cc21)NC1CC1` [Example 248, N-Cyclopropyl-2-[6-(3,4,5-trifluorophenyl)pyrrolo[3,2-b]pyridin-1-yl]acetamide] to `O=C(Cn1ccc2ncc(-c3cccc(C(F)F)c3)cc21)NC1CC1` [Example 250, N-Cyclopropyl-2-[6-[3-(difluoromethyl)phenyl]pyrrolo[3,2-b]pyridin-1-yl]acetamide], the IC50 rises from 63.1 nM to 251 nM (4-fold).

`O=C(Cn1ccc2ncc(-c3ccc(F)cc3)cc21)NCc1ccccc1` [Example 251, N-Benzyl-2-[6-(4-fluorophenyl)pyrrolo[3,2-b]pyridin-1-yl]acetamide] and `O=C(Cn1ccc2ncc(-c3ccccc3)cc21)N1CC(F)C1` [Example 270, 1-(3-Fluoroazetidin-1-yl)-2-(6-phenylpyrrolo[3,2-b]pyridin-1-yl)ethanone] are within 1.5-fold of each other in IC50: 50.1 nM for the first, 39.8 nM for the second.

First: O=C(Cn1ccc2ncc(-c3cccc(C(F)(F)F)c3F)cc21)N1CC(F)(F)C1 [Example 255, 1-(3,3-Difluoroazetidin-1-yl)-2-[6-[2-fluoro-3-(trifluoromethyl)phenyl]pyrrolo[3,2-b]pyridin-1-yl]ethanone trifluoroacetate salt]
Second: O=C(Cn1ccc2ncc(-c3cccc(C(F)(F)F)c3F)cc21)N1CC(F)C1 [Example 267, 1-(3-Fluoroazetidin-1-yl)-2-[6-[2-fluoro-3-(trifluoromethyl)phenyl]pyrrolo[3,2-b]pyridin-1-yl]ethanone trifluoroacetate salt]
The IC50 of the first is 100-fold higher: 3980 nM for the first, 39.8 nM for the second. The second is the more potent here.

`O=C(Cn1ccc2ncc(-c3cccc(F)c3)cc21)N1CC(F)(F)C1` [Example 256, 1-(3,3-Difluoroazetidin-1-yl)-2-[6-(3-fluorophenyl)pyrrolo[3,2-b]pyridin-1-yl]ethanone trifluoroacetate salt] and `Cc1cccc(-c2cnc3ccn(CC(=O)N4CC(F)(F)C4)c3c2)c1` [Example 269, 1-(3,3-Difluoroazetidin-1-yl)-2-[6-(m-tolyl)pyrrolo[3,2-b]pyridin-1-yl]ethanone] are within 1.5-fold of each other in IC50: 79.4 nM for the first, 63.1 nM for the second.

Compared with `O=C(Cn1ccc2ncc(-c3ccccc3)cc21)N1CC(F)(F)C1` [Example 257, 1-(3,3-Difluoroazetidin-1-yl)-2-(6-phenylpyrrolo[3,2-b]pyridin-1-yl)ethanone trifluoroacetate salt], `CCc1cccc(-c2cnc3ccn(CC(=O)N4CC(F)(F)C4)c3c2)c1` [Example 258, 1-(3,3-Difluoroazetidin-1-yl)-2-[6-(3-ethylphenyl)pyrrolo[3,2-b]pyridin-1-yl]ethanone trifluoroacetate salt] is 1.6-fold higher in IC50: 126 nM for the first, 200 nM for the second. The first is the more potent here.

First: Cc1cc(-c2cnc3ccn(CC(=O)N4CC(F)(F)C4)c3c2)ccc1F [Example 259, 1-(3,3-Difluoroazetidin-1-yl)-2-[6-(4-fluoro-3-methyl-phenyl)pyrrolo[3,2-b]pyridin-1-yl]ethanone trifluoroacetate salt]
Second: Cc1cc(F)ccc1-c1cnc2ccn(CC(=O)N3CC(F)(F)C3)c2c1 [Example 261, 1-(3,3-Difluoroazetidin-1-yl)-2-[6-(4-fluoro-2-methyl-phenyl)pyrrolo[3,2-b]pyridin-1-yl]ethanone trifluoroacetate salt]
The IC50 of the first is 1.6-fold lower: 31.6 nM for the first, 50.1 nM for the second.

Compared with `O=C(Cn1ccc2ncc(-c3cccc(C(F)(F)F)c3)cc21)N1CC(F)(F)C1` [Example 260, 1-(3,3-Difluoroazetidin-1-yl)-2-[6-[3-(trifluoromethyl)phenyl]pyrrolo[3,2-b]pyridin-1-yl]ethanone trifluoroacetate salt], `O=C(Cn1ccc2ncc(-c3cccc(C(F)(F)F)c3)cc21)N1CC(F)C1` [Example 265, 1-(3-Fluoroazetidin-1-yl)-2-[6-[3-(trifluoromethyl)phenyl]pyrrolo[3,2-b]pyridin-1-yl]ethanone trifluoroacetate salt] is 2.5-fold higher in IC50: 39.8 nM for the first, 100 nM for the second.

Going from `O=C(Cn1ccc2ncc(-c3ccc(F)c(C(F)(F)F)c3)cc21)N1CC(F)C1` [Example 262, 1-(3-Fluoroazetidin-1-yl)-2-[6-[4-fluoro-3-(trifluoromethyl)phenyl]pyrrolo[3,2-b]pyridin-1-yl]ethanone trifluoroacetate salt] to `O=C(Cn1ccc2ncc(-c3cccc(F)c3)cc21)N1CC(F)C1` [Example 263, 1-(3-Fluoroazetidin-1-yl)-2-[6-(3-fluorophenyl)pyrrolo[3,2-b]pyridin-1-yl]ethanone trifluoroacetate salt], the IC50 rises from 100 nM to 158 nM (1.6-fold).

Compared with `Cc1cc(F)ccc1-c1cnc2ccn(CC(=O)N3CC(F)C3)c2c1` [Example 264, 1-(3-Fluoroazetidin-1-yl)-2-[6-(4-fluoro-2-methyl-phenyl)pyrrolo[3,2-b]pyridin-1-yl]ethanone trifluoroacetate salt], `Cc1cccc(-c2cnc3ccn(CC(=O)N4CC(F)C4)c3c2)c1` [Example 266, 1-(3-Fluoroazetidin-1-yl)-2-[6-(m-tolyl)pyrrolo[3,2-b]pyridin-1-yl]ethanone trifluoroacetate salt] is 2-fold higher in IC50: 63.1 nM for the first, 126 nM for the second.

`CCc1cccc(-c2cnc3ccn(CC(=O)N4CC(F)C4)c3c2)c1` [Example 268, 2-[6-(3-Ethylphenyl)pyrrolo[3,2-b]pyridin-1-yl]-1-(3-fluoroazetidin-1-yl)ethanone trifluoroacetate salt] and `Cc1c(F)ccc(-c2cnc3c(F)cn(CC(=O)N4CC(F)(F)C4)c3c2)c1F` [Example 271, 1-(3,3-Difluoroazetidin-1-yl)-2-[6-(2,4-difluoro-3-methyl-phenyl)-3-fluoro-pyrrolo[3,2-b]pyridin-1-yl]ethanone] are the same in IC50: 79.4 nM for the first, 79.4 nM for the second.
